Results taken from US11634391B2, “Compounds which are inhibitors of Notum” (UCL BUSINESS LTD, priority 2018, dated 2023).

Target: notum carboxyesterase enzyme (Homo sapiens (Human), UniProt Q6P988)
Assay: Biochemical Notum Enzymatic Activity Assay (OPTS substrate, fluorescence)
Conditions: 2 μM OPTS solution, 2.38 nM notum enzyme solution, 1 hour incubation at room temperature, fluorescence ex 485 nm / em 520 nm; n≥2
Description: Plate layout and measured fluorescence values were input into Dotmatics Studies data management tool.

Chain of notum carboxyesterase enzyme (Q6P988 20-496): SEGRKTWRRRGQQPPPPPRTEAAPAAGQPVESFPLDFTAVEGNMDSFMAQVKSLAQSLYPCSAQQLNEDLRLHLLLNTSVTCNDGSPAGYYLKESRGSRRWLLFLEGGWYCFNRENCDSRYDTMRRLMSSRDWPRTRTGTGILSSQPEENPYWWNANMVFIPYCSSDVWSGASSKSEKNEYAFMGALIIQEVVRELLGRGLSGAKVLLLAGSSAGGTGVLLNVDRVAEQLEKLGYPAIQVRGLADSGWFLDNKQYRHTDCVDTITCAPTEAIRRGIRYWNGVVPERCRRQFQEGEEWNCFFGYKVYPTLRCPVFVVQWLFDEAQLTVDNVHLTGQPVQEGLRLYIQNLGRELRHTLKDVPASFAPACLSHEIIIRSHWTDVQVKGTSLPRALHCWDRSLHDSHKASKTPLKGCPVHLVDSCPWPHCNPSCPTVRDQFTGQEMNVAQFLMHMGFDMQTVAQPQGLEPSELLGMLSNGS

Row | Compound | IC50
1 | FC(F)(F)c1cc(-n2cnnn2)ccc1Cl [Compound 215, 1-[4-chloro-3-(trifluoromethyl)phenyl]tetrazole] | 0.457 µM
2 | c1nnc(-c2ccc(C3CC3)nc2)o1 [Compound 226, 2-(6-cyclopropyl-3-pyridyl)-1,3,4-oxadiazole] | 42.2 µM
3 | OCc1nnc(-c2ccc(Cl)c(Cl)c2)o1 [Compound 126, [5-(3,4-dichlorophenyl)-1,3,4-oxadiazol-2-yl]methanol] | 0.726 µM
4 | OCc1cn(-c2ccc3c(c2)OCCO3)nn1 [Compound 6, (1-(2,3-dihydrobenzo[b][1,4]dioxin-6-yl)-1H-1,2,3-triazol-4-yl)methanol] | 44.6 µM
5 | OCc1cn(-c2ccc(C(F)(F)F)c(Cl)c2)nn1 [Compound 13, (1-(3-chloro-4-(trifluoromethyl)phenyl)-1H-1,2,3-triazol-4-yl)methanol] | 1.72 µM
6 | Clc1ccc(-c2ccno2)cc1 [Compound 150, 5-(4-chlorophenyl)isoxazole] | 1.1 µM
7 | N#Cc1nnc(-c2ccccc2)o1 [Compound 132, 5-phenyl-1,3,4-oxadiazole-2-carbonitrile] | 18.8 µM
8 | OCc1cn(-c2ccc(Cl)c(C(F)(F)F)c2)nn1 [Compound 9, (1-(4-chloro-3-(trifluoromethyl)phenyl)-1H-1,2,3-triazol-4-yl)methanol] | 0.0935 µM
9 | OCc1cn(-c2cc(Cl)cc(Cl)c2)nn1 [Compound 27, (1-(3,5-dichlorophenyl)-1H-1,2,3-triazol-4-yl)methanol] | 3.03 µM
10 | NCc1nc(-c2ccc(Cl)cc2)no1 [Compound 152, [3-(4-chlorophenyl)-1,2,4-oxadiazol-5-yl]methanamine] | 43.1 µM
11 | NCc1nnc(-c2ccccc2)o1 [Compound 140, (5-phenyl-1,3,4-oxadiazol-2-yl)methanamine] | 2.94 µM
12 | FC1CN(c2cc(-n3ccnn3)ccc2C(F)(F)F)C1 [Compound 288, 1-(3-(3-fluoroazetidin-1-yl)-4-(trifluoromethyl)phenyl)-1H-1,2,3-triazole] | 0.248 µM
13 | OCCc1cn(-c2ccc(Cl)c(C(F)(F)F)c2)nn1 [Compound 303, 2-[1-[4-chloro-3-(trifluoromethyl)phenyl]triazol-4-yl]ethanol] | 0.149 µM
14 | Clc1ccc(-c2n[nH]c(-c3ccccn3)n2)cc1Cl [Compound 130, 2-(3-(3,4-dichlorophenyl)-1H-1,2,4-triazol-5-yl)pyridine] | 0.596 µM
15 | CC(C)c1ccc(-n2ccnn2)cc1 [Compound 60, 1-(4-isopropylphenyl)-1H-1,2,3-triazole] | 0.995 µM
16 | Cc1ccc(-c2nnc(O)o2)cc1OC(F)(F)F [Compound 79, 5-(4-methyl-3-(trifluoromethoxy)phenyl)-1,3,4-oxadiazol-2-ol] | 0.036 µM
17 | OCc1cn(Cc2ccc(Cl)cc2)nn1 [Compound 162, (1-(4-chlorobenzyl)-1H-1,2,3-triazol-4-yl)methanol] | 68.5 µM
18 | Clc1ccc(-c2cc[nH]n2)cc1Cl [Compound 55, 3-(3,4-dichlorophenyl)-1H-pyrazole] | 5.1 µM
19 | OCc1ncn(-c2ccc(Cl)c(Cl)c2)n1 [Compound 47, (1-(3,4-dichlorophenyl)-1H-1,2,4-triazol-3-yl)methanol] | 49.5 µM
20 | 4-(4-(1,3,4-oxadiazol-2-yl)-2-(trifluoromethyl)phenyl)pyrrolidine [Compound 280] | 0.405 µM
21 | NCc1cc(-c2ccccc2)no1 [Compound 143, (3-phenylisoxazol-5-yl)methanamine] | 11.6 µM

Row | Compound | IC50
22 | OCc1cn(-c2cccc(C(F)(F)F)c2)nn1 [Compound 275, (1-(3-(trifluoromethyl)phenyl)-1H-1,2,3-triazol-4-yl)methanol] | 2.23 µM
23 | OCc1cn(-c2ccc(C(F)(F)F)cc2)nn1 [Compound 271, (1-(4-(trifluoromethyl)phenyl)-1H-1,2,3-triazol-4-yl)methanol] | 8.7 µM
24 | CNc1nnc(-c2ccc(Cl)c(C(F)(F)F)c2Cl)o1 [Compound 249, 5-(2,4-dichloro-3-(trifluoromethyl)phenyl)-N-methyl-1,3,4-oxadiazol-2-amine] | 0.0319 µM
25 | OCc1cn(-c2ccc(Cl)c(C3CC3)c2)nn1 [Compound 276, (1-(4-chloro-3-cyclopropylphenyl)-1H-1,2,3-triazol-4-yl)methanol] | 1.06 µM
26 | COc1nnc(-c2ccc(Cl)c(C(F)(F)F)c2Cl)o1 [Compound 243, 2-(2,4-dichloro-3-(trifluoromethyl)phenyl)-5-methoxy-1,3,4-oxadiazole] | 0.0058 µM
27 | Oc1nnc(-c2ccc(C3CC3)nc2)o1 [Compound 209, 5-(6-cyclopropyl-3-pyridyl)-1,3,4-oxadiazol-2-ol] | 43.5 µM
28 | N#CCn1nc(-c2ccc(Cl)c(C(F)(F)F)c2Cl)oc1=O [Compound 244, 2-(5-(2,4-dichloro-3-(trifluoromethyl)phenyl)-2-oxo-1,3,4-oxadiazol-3(2H)-yl)acetonitrile] | 0.411 µM
29 | FC(F)(F)c1ccc(-c2c[nH]nn2)cc1C(F)(F)F [Compound 49, 4-(3,4-bis(trifluoromethyl)phenyl)-1H-1,2,3-triazole] | 0.008 µM
30 | Cc1nnnn1-c1ccc(Cl)c(C(F)(F)F)c1 [Compound 182, 1-[4-chloro-3-(trifluoromethyl)phenyl]-5-methyl-tetrazole] | 1.17 µM
31 | OCc1cn(-c2cccc(Cl)c2Cl)nn1 [Compound 7, (1-(2,3-dichlorophenyl)-1H-1,2,3-triazol-4-yl)methanol] | 6.77 µM
32 | FC(F)(F)c1cc(-c2nnn[nH]2)ccc1Cl [Compound 212, 5-[4-chloro-3-(trifluoromethyl)phenyl]-1H-tetrazole] | 21 µM
33 | Fc1cc(F)cc(-c2cc[nH]n2)c1 [Compound 56, 3-(3,5-difluorophenyl)-1H-pyrazole] | 23 µM
34 | OCc1nnc(-c2ccc(Cl)c(C(F)(F)F)c2)o1 [Compound 296, (5-(4-chloro-3-(trifluoromethyl)phenyl)-1,3,4-oxadiazol-2-yl)methanol] | 0.14 µM
35 | Clc1ccc(-n2ccnc2)cc1 [Compound 149, 1-(4-chlorophenyl)imidazole] | 5.16 µM
36 | OCc1cn(-c2cccc3ccccc23)nn1 [Compound 25, (1-(naphthalen-1-yl)-1H-1,2,3-triazol-4-yl)methanol] | 36.8 µM
37 | CC(C)(O)c1cn(-c2ccc(Cl)c(Cl)c2)nn1 [Compound 41, 2-(1-(3,4-dichlorophenyl)-1H-1,2,3-triazol-4-yl)propan-2-ol] | > 10 µM
38 | NCc1cc(-c2cccc(Cl)c2)no1 [Compound 147, (3-(3-chlorophenyl)isoxazol-5-yl)methanamine] | 15.2 µM
39 | OCc1cn(-c2ccc(Cl)c(Cl)c2)nn1 [Compound 19, (1-(3,4-dichlorophenyl)-1H-1,2,3-triazol-4-yl)methanol] | 0.484 µM
40 | Nc1nnc(-c2ccc(Cl)cc2)s1 [Compound 168, 5-(4-chlorophenyl)-1,3,4-thiadiazol-2-amine] | 8.29 µM
41 | O=C(O)c1cc(-c2ccc(Cl)cc2)c[nH]1 [Compound 160, 4-(4-chlorophenyl)-1H-pyrrole-2-carboxylic acid] | 21 µM
42 | FC(F)(F)c1cc(-c2nnco2)ccc1C1COC1 [Compound 284, 2-(4-(oxetan-3-yl)-3-(trifluoromethyl)phenyl)-1,3,4-oxadiazole] | 4.05 µM
